From US8187633B2, “Controlled release coated tablets having prolonged gastric retention” (Sun Pharma Advanced Research Company Limited, priority 2005, dated 2012)

Experiment: in vitro dissolution testing in simulated gastric fluids, Type 1 USP dissolution apparatus
Assay type: physicochemical
Settings: coated trilayer tablet of the Example, 0.01 N hydrochloric acid, 100 rpm, 37° C.
Procedure: The coated tablets were subjected to in vitro dissolution testing in simulated gastric fluids (0.01 N hydrochloric acid) at 100 rpm and 37° C. using Type 1 USP dissolution apparatus. [table]

Structure (SMILES) | % released (0 hours) | % released (1 hour) | % released (2 hours) | % released (4 hours) | % released (6 hours) | % released (8 hours)
C[C@@](Cc1ccc(O)c(O)c1)(NN)C(=O)O [Carbidopa] | 0% | 22% | 31% | 52% | 76% | 86%
N[C@@H](Cc1ccc(O)c(O)c1)C(=O)O [levodopa] | 0% | 24% | 33% | 57% | 82% | 95%
